Counter-ions that a name gives are not always drawn. Like-named read-outs stand apart in the source and are kept apart here.

In data set [1] the test system is toxic extensor seizure (maximal electroshock test). Kind of data set: Mouse anticonvulsant model, maximal electroshock test (MES). The format is in vivo. The note with it: for ED50: ip; for MES ED50 (Active @ 30): active at dose 30; for MES ED50 (Active @ 100): active at dose 100. As to the method:
Procedure for Testing in Mouse Anticonvulsant Model
The compounds of Formula (I) and Formula (II) are useful as anticonvulsant agents. The anticonvulsant activity of the subject compounds was determined using a standard “maximal electroshock test” (MES). In this test, activity is indicated by a block of the toxic extensor seizure, as described by Swinyard, et al., in J. PharmacoL Exptl. Therap., 106, 319 (1952). A more recent description of current anticonvulsant drug screening is given in Swinyard, et al., in Epilepsia, 19, 409 (1978).
The anticonvulsant activity of compounds of this invention tested according to the Swinyard (1952) method are shown in Table 3, having values for the Mouse MES Model in ED50 per dose (in mg/kg, i.p.).

Data set [2] relates to mechanical allodynia (paw withdrawal threshold). The data set is described as follows: Neuropathic pain model (Chung Model), spinal nerve ligation, mechanical allodynia with von Frey hairs. The format is in vivo, Sprague-Dawley rats. The conditions noted are these: for inhibition in vivo at 30 mg/kg: read-out: % MPE. The method, then: Procedure for Testing in a Neuropathic Pain Model
The compounds of the present invention are useful in the treatment of neuropathic pain. The use of the compounds in treating neuropathic pain was determined using an animal model. This model was developed and first described by S. H. Chung and J. M. Chung, An Experimental Model for Peripheral Neuropathy Produced by Segmental Spinal Nerve Ligation in the Rat, Pain, 1992, 50, 355-363 (referred to hereinafter as the “Chung Model”).
Male Sprague-Dawley rats, weighing approximately 200 g each were anesthetized with isoflurane. The spinal nerve at the level of L5 was exposed through an incision just left of the dorsal midline and tightly ligated with 6-0 silk. At various times after surgery, animals were tested for mechanical allodynia with von Frey hairs (monofilaments which are calibrated to bend under a certain amount of pressure, ranging from 0.41 to 15.1 g). In order to calculate a paw withdrawal threshold (PWT), tactile allodynia was measured by recording the pressure at which the affected paw was withdrawn from graded stimuli according to the procedure of S. R. Chaplan, J. W. Pogrel, T. L. Yaksh, Role of Voltage-Dependent Calcium Channel Subtypes in Experimental Tactile Allodynia, J. Pharmacol. Exp. Ther. 1994, 269,1117-1123. Normal rats can withstand at least 15 g of pressure without responding. Operated rats, however, can respond to as little as 0.25 g of pressure. The surgery was deemed successful if the animal responded with a PWT of less than 4 g of pressure applied to the affected paw.
The sham operation consisted of a similar surgery; the spinal nerve was visualized without being ligated. […] The results of the assay were expressed as percent of the maximum possible effect (% MPE), calculated as the PWT at the time of testing minus the baseline PWT divided by the maximum PWT (15 g) minus the baseline PWT times 100.
The compounds having Formula (I) and Formula (II) were tested for activity against neuropathic pain by being dissolved or suspended in either water or hydroxypropyl methylcellulose, respectively. Postoperative animals between 14 to 42 days were fasted overnight prior to dosing. Animals were orally dosed and dosage volumes were calculated on a 4 mL/kg basis. The screening dose employed was 30 mg/kg.

The mark [3] stands for this setting: Chung Model rat, antiallodynic activity, oral screening dose 30 mg/kg.

Usually melting point stands for the temperature, or range, at which the solid turns liquid. As for `CCN(CC)CC(=O)c1cc(C(=O)c2cccs2)cn1C` (as salt: HCl) [Cpd 2, 1-[4-(2-Thienoyl)-1-methyl-1H-pyrrol-2-yl]-2-(N,N-diethylamino)ethanone], the melting point fell in the range of 196 to 198 °C.

The compound `CCN(CC)CC(=O)c1cc(C(=O)c2cccc3ccccc23)cn1C` (as salt: HCl) [Cpd 3, 1-[4-(1-Naphthalenoyl)-1-methyl-1H-pyrrol-2-yl]-2-(N,N-diethylamino)ethanone] registered a melting point of 222 to 224 °C. Same read-out and setting: the figure for `Cn1cc(C(=O)c2cccc3ccccc23)cc1C(=O)CN1CCCCC1` (as salt: HCl) [Cpd 4, 1-[4-(1-Naphthalenoyl)-1-methyl-1H-pyrrol-2-yl]-2-(1-piperidinyl)ethanone] is 246 to 248 °C; for `CC(N(C)C)n1cc(C(=O)c2ccc3ccccc3c2)cc1C(=O)CN1CCCCC1` (stereo not shown) (as salt: HCl) [Cpd 5, 1-[4-(2-Naphthalenoyl)-1-(N,N-dimethylaminoeth-2-yl)-1H-pyrrol-2-yl]-2-(1-piperidinyl)ethanone] it is 239 to 242 °C; for `Cn1cc(C(=O)CCN2CCCCC2)cc1C(=O)c1cccc2ccccc12` (as salt: HCl) [Cpd 8, 1-[5-(1-Naphthalenoyl)-1-methyl-1H-pyrrol-3-yl]-3-(1-piperidinyl)-1-propanone] it is 141 to 143 °C. In turn, `CCCOn1cc(C(=O)CN(CC)CC)cc1C(=O)c1ccc(Cl)cc1` (as salt: HCl) [Cpd 9, 1-[5-(4-Chlorobenzoyl)-1-ethylmethoxy-1H-pyrrol-3-yl]2-[N,N-diethylamino]ethanone] gave a melting point of 149 to 151 °C. Still for that read-out and setting: the figure for `CCN(CC)CC(=O)c1cc(C(=O)c2cccnc2)n(C)c1` (as salt: HCl) [Cpd 12, 1-[5-(3-Pyridinoyl)-1-methyl-1H-pyrrol-3-yl]-2-(N,N-diethylamino)ethanone] is 158 to 160 °C (dec.). Same read-out and setting: to `CCN(CC)CC(=O)c1cc(C(=O)c2ccc3ccccc3c2)n(C)c1` (as salt: HCl) [Cpd 13, 1-[5-(2-Naphthalenoyl)-1-methyl-1H-pyrrol-3-yl]-2-(N,N-diethylamino)ethanone] belongs 195 to 196 °C.

In the case of `CCC(N(C)C)n1cc(C(=O)CN2CCCCC2)cc1C(=O)c1ccc(Cl)cc1` (stereo not shown) (as salt: HCl) [Cpd 14, 1-[5-(4-Chlorobenzoyl)-1-(N,N-dimethylaminoprop-3-yl) -1H-pyrrol-3-yl]-2-(1-piperidinyl)ethanone], the melting point is 138 to 141 °C. On the same count and under the same terms, to `CCSCn1cc(C(=O)CN(CC)CC)cc1C(=O)c1ccccc1Cl` (as salt: HCl) [Cpd 16, 1-[5-(2-Chlorobenzoyl)-1-ethylthiomethyl-1H-pyrrol-3-yl]-2-(N,N-diethylamino)ethanone] belongs 157 to 158 °C; to `Cn1cc(C(=O)c2ccc3ccccc3c2)cc1C(=O)CN1CCCCC1` (as salt: HCl) [Cpd 17, 1-[4-(2-Naphthalenoyl)-1-methyl-1H-pyrrol-2-yl]-2-(1-piperidinyl)ethanone], 246 to 248 °C; to `CCN(CC)CC(=O)c1cc(C(=O)c2ccc3ccccc3c2)cn1C` (as salt: fumarate) [Cpd 1, 1-[4-(2-Naphthalenoyl)-1-methyl-1H-pyrrol-2-yl]-2-(N,N-diethylamino)ethanone], 130 to 132 °C.

Compound `CCN(CC)CC(=O)c1cc(C(=O)c2cccs2)n(C)c1` (as salt: salt) [Cpd 10, 1-[5-(2-Thienoyl)-1-methyl-1H-pyrrol-3-yl]-2-(N,N-diethylamino)ethanone] gave a melting point of 153 to 155 °C. As a reminder, the ED50 is the midpoint of the dose-response relation. For the compound `CCN(CC)CC(=O)c1cc(C(=O)c2ccc3ccccc3c2)cn1C` [Cpd 1, 1-[4-(2-Naphthalenoyl)-1-methyl-1H-pyrrol-2-yl]-2-(N,N-diethylamino)ethanone], the 50% effective dose (ED50) in data set [1] is 11 mg/kg. Moreover, the inhibition in vivo at 30 mg/kg in data set [2] (setting [3]) was determined as 80%. `CCN(CC)CC(=O)c1cc(C(=O)c2cccs2)cn1C` [Cpd 2, 1-[4-(2-Thienoyl)-1-methyl-1H-pyrrol-2-yl]-2-(N,N-diethylamino)ethanone]: the “MES ED50 (Active @ 30)” value in data set [1] (i.p.) was “Active @ 30”. The inhibition in vivo at 30 mg/kg in data set [2] (setting [3]) turned out to be 14%.

For the compound `CCN(CC)CC(=O)c1cc(C(=O)c2cccc3ccccc23)cn1C` [Cpd 3, 1-[4-(1-Naphthalenoyl)-1-methyl-1H-pyrrol-2-yl]-2-(N,N-diethylamino)ethanone], in data set [1] (i.p.), the “MES ED50 (Active @ 30)” value is recorded as “Active @ 30”. Also, in data set [2] (Rattus norvegicus, po), the inhibition in vivo at 30 mg/kg was 87%. For `Cn1cc(C(=O)c2cccc3ccccc23)cc1C(=O)CN1CCCCC1` [Cpd 4, 1-[4-(1-Naphthalenoyl)-1-methyl-1H-pyrrol-2-yl]-2-(1-piperidinyl)ethanone], in that order: “Active @ 30” and 12%. Take `CCN(CC)CC(=O)c1cc(-c2ccc(Cl)s2)n(C)c1` [Cpd 6, 1-[5-(5-Chlorothieno-2-yl)-1-methyl-1H-pyrrol-3-yl]-2-(N,N-diethylamino)ethanone]: in data set [1] (i.p.), the “MES ED50 (Active @ 30)” value was “Active @ 30”. Besides, in data set [2] (setting [3]), the “% MPE” value was 54 % MPE. As to `CN1CCN(CC(=O)c2cc(C(=O)c3ccc(Cl)cc3)n(C)c2)CC1` [Cpd 7, 1-[5-(4-Chlorobenzoyl)-1-methyl-1H-pyrrol-3-yl]-2-(4-methyl-1-piperazinyl)ethanone], the 50% effect level in data set [1] (ED50) was put at a dose of 16.6 mg/kg. In addition, the inhibition in vivo at 30 mg/kg in data set [2] (setting [3]) was 21%. For the compound `Cn1cc(C(=O)CCN2CCCCC2)cc1C(=O)c1cccc2ccccc12` [Cpd 8, 1-[5-(1-Naphthalenoyl)-1-methyl-1H-pyrrol-3-yl]-3-(1-piperidinyl)-1-propanone], the “MES ED50 (Active @ 30)” value in data set [1] (i.p.) is recorded as “Active @ 30”. The inhibition in vivo at 30 mg/kg in data set [2] (Rattus norvegicus, po) stood at 25%. For `CCCOn1cc(C(=O)CN(CC)CC)cc1C(=O)c1ccc(Cl)cc1` [Cpd 9, 1-[5-(4-Chlorobenzoyl)-1-ethylmethoxy-1H-pyrrol-3-yl]2-[N,N-diethylamino]ethanone], in data set [1] (i.p.), the “MES ED50 (Active @ 100)” value is reported as “Active @ 100”. The inhibition in vivo at 30 mg/kg in data set [2] (setting [3]) worked out at 5%. Regarding `CCN(CC)CC(=O)c1cc(C(=O)c2cccs2)n(C)c1` [Cpd 10, 1-[5-(2-Thienoyl)-1-methyl-1H-pyrrol-3-yl]-2-(N,N-diethylamino)ethanone], the “MES ED50 (Active @ 100)” value in data set [1] (i.p.) is “Active @ 100”. The inhibition in vivo at 30 mg/kg in data set [2] (setting [3]) was found to be 0%. In turn, `Cn1cc(C(=O)CN2CCCCC2)cc1C(=O)c1cccs1` [Cpd 11, 1-[5-(2-Thienoyl)-1-methyl-1H-pyrrol-3-yl]-2-(1-piperidinyl)ethanone] showed a melting point of 178 to 179 °C. For the same compound, in data set [1] (i.p.), the “MES ED50 (Active @ 30)” value was “Active @ 30”. Moreover, the inhibition in vivo at 30 mg/kg in data set [2] (setting [3]) is 34%. With `CCN(CC)CC(=O)c1cc(C(=O)c2cccnc2)n(C)c1` [Cpd 12, 1-[5-(3-Pyridinoyl)-1-methyl-1H-pyrrol-3-yl]-2-(N,N-diethylamino)ethanone], the “MES ED50 (Active @ 100)” value in data set [1] (i.p.) is on record as “Active @ 100”. Moreover, in data set [2] (setting [3]), the inhibition in vivo at 30 mg/kg stood at 4%.

For `CCN(CC)CC(=O)c1cc(C(=O)c2ccc3ccccc3c2)n(C)c1` [Cpd 13, 1-[5-(2-Naphthalenoyl)-1-methyl-1H-pyrrol-3-yl]-2-(N,N-diethylamino)ethanone], the “MES ED50 (Active @ 300)” value in data set [1] (i.p., active at dose 300) was “Active @ 300”. Also, the inhibition in vivo at 30 mg/kg in data set [2] (setting [3]) was 80%. Take `CCN(C)CC(=O)c1cc(C(=O)c2ccc3ccccc3c2)n(C)c1` [Cpd 15, 1-[5-(2-Naphthalenoyl)-1-methyl-1H-pyrrol-3-yl]-2-(N,N-ethylmethylamine)ethanone]: the “MES ED50 (Active @ 30)” value in data set [1] (i.p.) is recorded as “Active @ 30”. In data set [2] (setting [3]), the “% MPE” value came out at 40 % MPE.

The values above are taken from US6573267B2, “Useful aroyl aminoacyl pyrrole compounds” (Ortho-McNeil Pharmaceutical, Inc., priority 2000, dated 2003).
